Read-outs that look alike come from different tables or passages of the source.

The term IC50 denotes the point on the concentration scale where inhibition reaches its midpoint.

Details of assay [1]: method as in earlier work. The conditions noted are these: cited from earlier work.
For assay [2], the system named is influenza A virus A/Aichi/2/68 (H3N2). Put plainly: microbe, parasite or virus in culture. Type of assay: cell-based. Particulars: read-out: IC50 H3N2 Aichi strain.
Assay [3] has as its system influenza A virus A/PR/8/34 (H1N1). Briefly: microbe, parasite or virus in culture. In kind it is cell-based. Particulars: read-out: IC50 H1N1 PR8 strain.
Assay [4] has as its system HIV-reverse transcriptase. Details: method as in PMID 15686922. Particulars: cited from earlier work.

For the compound “[60]fullerenodicyclopropane-1,1,1′,1′-tetracarboxylic acid [no. 2]”, the antioxidant activity entry in assay [1] was “excellent antioxidant activity”. Besides, the IC50 is above 100 µM in assay [2] and 57 µM in assay [3].
Consider `O=C(O)C1NC(C(=O)O)C23c4c5c6c7c8c9c(c%10c%11c2c2c4c4c%12c5c5c6c6c8c8c%13c9c9c%10c%10c%11c%11c2c2c4c4c%12c%12c5c5c6c8c6c8c%13c9c9c%10c%10c%11c2c2c4c4c%12c5c6c5c8c9c%10c2c45)C713` (stereo not drawn) [no. 3, [60]fullerenopyrrolidine-2,5-dicarboxylic acid], for which the “inhibition of HIV-reverse transcriptase” value in assay [4] is given as “inhibits”. The concentration for half-maximal inhibition (IC50) was above 100 µM in assay [2] (Influenza A virus, H3N2, MDCK, 24 h) and above 100 µM in assay [3] (Influenza A virus, MDCK, 24 h).

These data come from publication PMC3681905, “Anti-Influenza Activity of C60 Fullerene Derivatives” (PLoS ONE, 2013).
